Values of other authors in PubChem BioAssay AID1259409 (Chemical Carcinogenesis Research Information System (CCRIS), 2018).
“And” between values parts separate entries of the source, which are not always exact repeats. Equal entries are not always repeated.

Test system: rodent chemically induced tumor inhibition, incidence and multiplicity
Assay: CCRIS tumor inhibitor studies

CCCC(=O)O
tumour outcome (control, treated, inhibition, significance) (Carcinogen: 7,12-DIMETHYLBENZ[A]ANTHRACENE, 57-97-6, Dose [Inhibitor]: 0, 6% IN BASAL DIET BEGINNING 1 WK PRIOR TO CARCINOGEN DOSE AND CONTINUING FOR DURATION OF STUDY (STUDY DURATION: >15 WK, Route [Inhibitor]: ORAL, Species: RAT, Strain/Sex: SPRAGUE-DAWLEY/FEMALE, Target Tissue: Type of Lesion: MAMMARY GLAND: ADENOCARCINOMA, Dose [Carcinogen]: 5 MG IN 0.5 ML CORN OIL ONCE, Promoter: NONE USED): 10/26 (38%), 4/20 (20%), 47%, not significant
tumour outcome (control, treated, inhibition, significance) (Carcinogen: 7,12-DIMETHYLBENZ[A]ANTHRACENE, 57-97-6, Dose [Inhibitor]: 0, 6% IN BASAL DIET BEGINNING 1 WK PRIOR TO CARCINOGEN DOSE AND CONTINUING FOR DURATION OF STUDY (STUDY DURATION: >15 WK, Route [Inhibitor]: ORAL, Species: RAT, Strain/Sex: SPRAGUE-DAWLEY/FEMALE, Target Tissue: Type of Lesion: MAMMARY GLAND: CARCINOMA, Dose [Carcinogen]: 5 MG IN 0.5 ML CORN OIL ONCE, Promoter: NONE USED): 11/26 (42%), 8/20 (40%), 5%, not significant
tumour outcome (control, treated, inhibition, significance) (Carcinogen: 7,12-DIMETHYLBENZ[A]ANTHRACENE, 57-97-6, Dose [Inhibitor]: 0, 6% IN DIET CONTAINING 20% SAFFLOWER MARGARINE BEGINNING 1 WK PRIOR TO CARCINOGEN DOSE AND CONTINUING FOR DURATION OF, Route [Inhibitor]: ORAL, Species: RAT, Strain/Sex: SPRAGUE-DAWLEY/FEMALE, Target Tissue: Type of Lesion: MAMMARY GLAND: ADENOCARCINOMA, Dose [Carcinogen]: 5 MG IN 0.5 ML CORN OIL ONCE, Promoter: NONE USED): 14/19 (74%), 8/20 (40%), 46%, p<0.05
tumour outcome (control, treated, inhibition, significance) (Carcinogen: 7,12-DIMETHYLBENZ[A]ANTHRACENE, 57-97-6, Dose [Inhibitor]: 0, 6% IN DIET CONTAINING 20% SAFFLOWER MARGARINE BEGINNING 1 WK PRIOR TO CARCINOGEN DOSE AND CONTINUING FOR DURATION OF, Route [Inhibitor]: ORAL, Species: RAT, Strain/Sex: SPRAGUE-DAWLEY/FEMALE, Target Tissue: Type of Lesion: MAMMARY GLAND: CARCINOMA, Dose [Carcinogen]: 5 MG IN 0.5 ML CORN OIL ONCE, Promoter: NONE USED): 16/19 (84%), 11/20 (55%), 35%, p<0.05

C=CCSC[C@H](N)C(=O)O
outcome (Carcinogen: 7,12-DIMETHYLBENZ[A]ANTHRACENE (57-97-6), Dose [Inhibitor]: 0, 200 MG/KG ON ALTERNATE DAYS FOR 14 WK (STUDY DURATION: 14 WK), Route [Inhibitor]: ORAL, Species: HAMSTER, Strain/Sex: SYRIAN/MALE, Target Tissue: Type of Lesion: BUCCAL POUCH: SQUAMOUS CELL CARCINOMA, Dose [Carcinogen]: 0.5% IN LIQUID PARAFFIN TO RIGHT BUCCAL POUCH, ALTERNATE DAYS FOR 14 WK, Promoter: NONE USED): 10, 0, 100%, not calculated
tumour outcome (control, treated, inhibition, significance) (Carcinogen: N-METHYL-N'-NITRO-N-NITROSOGUANIDINE [70-25-7], Dose [Inhibitor]: 200 MG/KG 3X/WK BEGINNING ON DAY 1 (STUDY DURATION: 21 WK), Route [Inhibitor]: GAVAGE, Species: RAT, Strain/Sex: WISTAR/MALE, Target Tissue: Type of Lesion: STOMACH: CARCINOMA, Dose [Carcinogen]: 200 MG/KG BW ONCE ON DAYS 0 AND 14, Promoter: SODIUM CHLORIDE [7647-14-5]): 6/6 (100%), 0/6 (0%), 100%, not determined
tumour outcome (control, treated, inhibition, significance) (Carcinogen: N-METHYL-N-NITROSOUREA, 684-93-5, Dose [Inhibitor]: 0, 57 UMOL/KG DIET FOR 25 WK BEGINNING 2 WK PRIOR TO CARCINOGEN DOSE (STUDY DURATION: 25 WK), Route [Inhibitor]: ORAL, Species: RAT, Strain/Sex: SPRAGUE-DAWLEY/FEMALE, Target Tissue: Type of Lesion: MAMMARY GLAND: TUMOR, Dose [Carcinogen]: 15 MG/KG BW ONCE, Promoter: NONE USED): 81%, 48%, 41%, p<0.05

CC(C)C(=O)Nc1ccc([N+](=O)[O-])c(C(F)(F)F)c1
tumour outcome (control, treated, inhibition, significance) (Carcinogen: DIETHYLNITROSAMINE, 55-18-5, Dose [Inhibitor]: 0, 0.5 MG/G IN DIET FOR 3 WK BEGINNING AT 25 WK OF AGE (STUDY DURATION: 52 WK), Route [Inhibitor]: ORAL, Species: MOUSE, Strain/Sex: B6C3F1/MALE, Target Tissue: Type of Lesion: LIVER: TUMOR, Dose [Carcinogen]: 0.2 MICROMOLAR/G BW ONCE AT 6 WK OF AGE, Promoter: NONE USED): 81%, 50%, 38%, p<0.05
tumour outcome (control, treated, inhibition, significance) (Carcinogen: DIETHYLNITROSAMINE, 55-18-5, Dose [Inhibitor]: 0, 0.5 MG/G IN DIET FOR 3 WK POST CARCINOGEN DOSE (STUDY DURATION: 52 WK), Route [Inhibitor]: ORAL, Species: MOUSE, Strain/Sex: B6C3F1/MALE, Target Tissue: Type of Lesion: LIVER: TUMOR, Dose [Carcinogen]: 0.2 MICROMOLAR/G BW ONCE AT 6 WK OF AGE, Promoter: NONE USED): 81%, 63%, 22%, not significant
tumour outcome (control, treated, inhibition, significance) (Carcinogen: DIETHYLNITROSAMINE, 55-18-5, Dose [Inhibitor]: 0, 0.5 MG/G IN DIET FOR 27 WK BEGINNING AT 25 WK OF AGE (STUDY DURATION: 52 WK), Route [Inhibitor]: ORAL, Species: MOUSE, Strain/Sex: B6C3F1/MALE, Target Tissue: Type of Lesion: LIVER: TUMOR, Dose [Carcinogen]: 0.2 MICROMOLAR/G BW ONCE, Promoter: NONE USED): 81%, 53%, 35%, p<0.05
tumour outcome (control, treated, inhibition, significance) (Carcinogen: DIETHYLNITROSAMINE, 55-18-5, Dose [Inhibitor]: 0, 0.5 MG/G IN DIET FOR DURATION OF STUDY (STUDY DURATION: 52 WK), Route [Inhibitor]: ORAL, Species: MOUSE, Strain/Sex: B6C3F1/MALE, Target Tissue: Type of Lesion: LIVER: TUMOR, Dose [Carcinogen]: 0.2 MICROMOLAR/G BW ONCE AT 6 WK OF AGE, Promoter: NONE USED): 81%, 97%, -20%, p<0.05
tumour outcome (control, treated, inhibition, significance) (Carcinogen: N-BUTYL-N-(4-HYDROXYBUTYL)NITROSAMINE, 3817-11-6, Dose [Inhibitor]: 0, 50 MG/KG 2/WK FOR 11 WK BEGINNING POST CARCINOGEN TREATMENT (STUDY DURATION:21WK), Route [Inhibitor]: ORAL, Species: RAT, Strain/Sex: WISTAR/MALE, Target Tissue: Type of Lesion: URINARY BLADDER: CARCINOMA, Dose [Carcinogen]: 0.05% IN DRINKING WATER FOR 10 WK, Promoter: NONE USED): 15/17 (88%), 12/16, 75%, 15%, not significant
tumour outcome (control, treated, inhibition, significance) (Carcinogen: N-BUTYL-N-(4-HYDROXYBUTYL)NITROSAMINE, 3817-11-6, Dose [Inhibitor]: 0, 50 MG/KG 2/WK FOR 13 WK BEGINNING POST CARCINOGEN TREATMENT (STUDY DURATION: 20 WK), Route [Inhibitor]: ORAL, Species: RAT, Strain/Sex: WISTAR/MALE, Target Tissue: Type of Lesion: URINARY BLADDER: CARCINOMA, Dose [Carcinogen]: 0.05% IN DRINKING WATER FOR 7 WK, Promoter: NONE USED): 25/39 (64%), 10/21 (48%), 25%, not significant
tumour outcome (control, treated, inhibition, significance) (Carcinogen: N-BUTYL-N-(4-HYDROXYBUTYL)NITROSAMINE, 3817-11-6, Dose [Inhibitor]: 0, 200 MG/KG 2/WK FOR 13 WK BEGINNING POST CARCINOGEN TREATMENT (STUDY DURATION:20 WK), Route [Inhibitor]: ORAL, Species: RAT, Strain/Sex: WISTAR/MALE, Target Tissue: Type of Lesion: URINARY BLADDER: CARCINOMA, Dose [Carcinogen]: 0.05% IN DRINKING WATER FOR 7 WK, Promoter: NONE USED): 25/39 (64%), 5/17 (29%), 55%, p<0.05
tumour outcome (control, treated, inhibition, significance) (Carcinogen: N-NUTYL-N-(4-HYDROXYBUTYL)NITROSAMINE, 3817-11-6, Dose [Inhibitor]: 0, 100 MG/KG 2/WK FOR 13 WK BEGINNING POIST CARCINOGEN TREATMENT (STUDY DURATION: 20 WK), Route [Inhibitor]: ORAL, Species: RAT, Strain/Sex: WISTAR/MALE, Target Tissue: Type of Lesion: URINARY BLADDER: CARCINOMA, Dose [Carcinogen]: 0.05% IN DRINKING WATER FOR 7 WK, Promoter: NONE USED): 25/39 (64%), 7/17 (41%), 36%, not significant

CCCCC/C=C\C/C=C\CCCCCCCC(=O)O
tumour outcome (control, treated, inhibition, significance) (Carcinogen: BENZO[A]PYRENE, 50-32-8, Dose [Inhibitor]: 0, 0.1 ML IN 0.1 ML OLIVE OIL 4 AND 2 D PRIOR TO CARCINOGEN DOSE (CYCLE REPEATED 4 X) (STUDY DURATION: 23 WK), Route [Inhibitor]: GAVAGE, Species: MOUSE, Strain/Sex: ICR/FEMALE, Target Tissue: Type of Lesion: STOMACH: PAPILLOMA, Dose [Carcinogen]: 2 MG IN 0.2 ML OLIVE OIL 1/WK FOR 4 WK): 100%, 90%, 10%, not calculated

CCCCCCCCCc1ccc(O)cc1
tumour outcome (control, treated, inhibition, significance) (Carcinogen: 7,12-DIMETHYLBENZ[A]ANTHRACENE, 57-97-6, Dose [Inhibitor]: 0, 25 PPM IN DIET FOR 50 WK BEGINNING 1 WK POST-CARCINOGEN DOSE (STUDY DURATION: 51 WK), Route [Inhibitor]: ORAL, Species: RAT, Strain/Sex: SPRAGUE-DAWLEY/FEMALE, Target Tissue: Type of Lesion: OVARY: ADENOCARCINOMA, Dose [Carcinogen]: 0.01 ML OF 0.5% DMBA IN OLIVE OIL INTO THE LEFT OVARY, ONCE, UNDER PENTOBARBITAL ANESTHESIA, Promoter: NONE USED): 7/20 (35%), 1/20 (5%), 86%, p=0.02
tumour outcome (control, treated, inhibition, significance) (Carcinogen: 7,12-DIMETHYLBENZ[A]ANTHRACENE, 57-97-6, Dose [Inhibitor]: 0, 250 PPM IN DIET FOR 50 WK BEGINNING 1 WK POST-CARCINOGEN DOSE (STUDY DURATION: 51 WK), Route [Inhibitor]: ORAL, Species: RAT, Strain/Sex: SPRAGUE-DAWLEY/FEMALE, Target Tissue: Type of Lesion: OVARY: ADENOCARCINOMA, Dose [Carcinogen]: 0.01 ML OF 0.5% DMBA IN OLIVE OIL INTO THE LEFT OVARY, ONCE, UNDER PENTOBARBITAL ANESTHESIA, Promoter: NONE USED): 7/20 (35%), 1/20 (5%), 86%, p=0.02

O=C(O)/C=C/c1ccccc1
tumour outcome (control, treated, inhibition, significance) (Carcinogen: BENZO[A]PYRENE, 50-32-8, Dose [Inhibitor]: 0.06 MMOL/G OF DIET DAILY STARTING 7 D BEFORE AND CONTINUING THROUGH 3 D AFTER CARCINOGEN TREATMENT FOLLOWED BY OBSERVAT, Route [Inhibitor]: ORAL, Species: MOUSE, Strain/Sex: ICR/FEMALE, Target Tissue: Type of Lesion: FORESTOMACH: NEOPLASM, Dose [Carcinogen]: 1 MG IN 0.2 ML CORN OIL 2/WK FOR 4 WK, Promoter: NONE USED): 97%, 100%, -3%, not significant and 100%, 94%, 6%, not significant
